Reference: PubChem BioAssay AID1996
≈ marks a conversion by molar mass, not a printed value.

Details: buffer; pH 7.4; 200.0 µM

Structure (SMILES) | solubility kinetic [µg/mL]
Cc1ccccc1OCC(=O)Nc1ccc2c(c1)n(C)c(=O)n2C | 46.2 (≈ 142 µM)
COc1ccc(/C=C2\N=C3CCCN3C2=O)cc1 | > 36.3
CCOc1ccccc1NC(=O)C(=O)NCCC1=CCCCC1 | < 0.3
COc1ccc(-n2c(CN3CCOCC3)nc3ccccc3c2=O)c(OC)c1 | > 57.2
O=c1c(Cc2ccc(F)cc2)c(O)ccn1CCCn1ccnc1 | > 49.1
CCOC(=O)Cc1csc(NC(=O)Nc2ccc(F)cc2)n1 | 4.4 (≈ 13.6 µM)
N/C(=N\O)c1cccc(CS(=O)(=O)c2ccccn2)c1 | 37 (≈ 127 µM)
O=C(Nc1ccc(NC(=O)C2CC2)cc1)c1cccs1 | 3.3 (≈ 11.5 µM)
CC1(C)CC(CC(=O)O)CC(C)(C)N1.Cl | > 35.4
CCOC(=O)N1CCC(NC(=O)Cc2ccccc2)CC1 | > 43.6
Brc1ccc(COc2cccc3cccnc23)cc1 | 2.3 (≈ 7.32 µM)
Cc1cc(S(=O)(=O)NCC2CC2)c(Cl)cc1Cl | > 44.1
CCN1CCN(c2ccc(S(=O)(=O)N3CCOCC3)cc2NC(=O)c2cccc([N+](=O)[O-])c2)CC1 | > 75.5
O=C(Nc1ccncc1)c1ccc([N+](=O)[O-])cc1Cl | 17.6 (≈ 63.4 µM)
O=C(O)c1ccccc1N1C(=O)c2cccc3cccc(c23)C1=O | > 47.6
CCCN1CCC(NC(=O)Nc2cccc3ccccc23)CC1 | > 46.7
COC(=O)c1cc(C(=O)Nc2ccc(Cl)cn2)cc([N+](=O)[O-])c1 | 2.5 (≈ 7.45 µM)
Cc1ccc(O)c(NC(=O)c2cc([N+](=O)[O-])ccc2Cl)c1 | 8.5 (≈ 27.7 µM)
Nc1ccccc1N1C(=O)c2cccc3cccc(c23)C1=O | 4.3 (≈ 14.9 µM)
O=C(NCCOC(=O)c1ccccc1)c1ccccc1 | > 40.4
COc1ccccc1NC(=O)COC(=O)c1cc(C)oc1C | 6.7 (≈ 22.1 µM)
COc1ccc(N2CCN(CC(=O)c3ccccc3)CC2)cc1 | > 46.6
Cn1cc(S(=O)(=O)N2CCOCC2)cc1C(=O)O | > 41.1
OCCNc1c2ccccc2nc2ccccc12 | 33.7 (≈ 141 µM)

Structure (SMILES) | solubility kinetic [µg/mL]
C=CCN(Cc1cccs1)C(=O)COc1ccc2c(c1)OCO2 | > 49.7
COCC(=O)Nc1ccc(S(=O)(=O)N2CCCC2)cc1 | > 44.8
CC(C)[C@H](NC(=O)c1ccccc1Cl)C(=O)OCC(=O)NC(=O)NCc1ccco1 | 40.1 (≈ 92 µM)
Cc1cc(NC(=O)c2cccc(S(=O)(=O)Nc3cccc(C(=O)O)c3)c2)no1 | > 60.2
CC(C)CCNC(=O)C(=O)NCc1ccccc1 | 2.6 (≈ 10.5 µM)
Cc1ccc(C(=O)CCC(=O)Nc2cccc(C)c2)cc1 | < 0.6
O=[N+]([O-])c1cccc(CSc2cccc[n+]2[O-])c1 | > 39.3
Cc1cnc(C(=O)Nc2ccc(N3CCCCC3)cc2)cn1 | 4.2 (≈ 14.2 µM)
Cc1ccc(NC(=O)Cn2ccnc2)cc1C | 30.4 (≈ 133 µM)
CC1CN(S(=O)(=O)c2cc(C(=O)N3CCCCC3C)ccc2Cl)CC(C)O1 (configuration not stated) | > 62.2
COc1ccc(NC(=O)/C=N/O)cc1 | > 29.1
Cc1ccc(SCC(=O)O/N=C(\N)c2cccnc2)cc1 | 40 (≈ 133 µM)
Cc1cc(C)nc(SCC(=O)c2ccc(F)cc2F)n1 | > 44.1
O=C(Nc1ccc(Cl)cn1)C1COc2ccccc2O1 (configuration not stated) | 2 (≈ 6.88 µM)
Cc1cc(S(=O)(=O)NCc2ccc(N3CCN(C)CC3)cc2)c(C)s1 | 15.8 (≈ 41.6 µM)
CCOc1cc(/C=N/OC(C)=O)ccc1OCc1ccccc1 | 27.2 (≈ 86.8 µM)
CC1CCC(NC(=O)c2cc(Cl)nc3ccccc23)CC1 (configuration not stated) | 2.5 (≈ 8.26 µM)
COc1ccccc1C(=O)N/C(=C\c1ccccc1)C(=O)NC(C)C(=O)O (configuration not stated) | 52.2 (≈ 142 µM)
CCc1ccc(C(C)NC(=S)NC2CCCCC2)cc1 (configuration not stated) | 11.4 (≈ 39.2 µM)
COc1ccc(NC(=O)CN(C)C(=O)CCC2CCCC2)cc1 | 45.5 (≈ 143 µM)
CCOC(=O)NC(=O)/C(C#N)=C/c1ccc(N(C)C)cc1 | 15.1 (≈ 52.6 µM)
O=C(Nc1ccc(OC(F)(F)F)cc1)c1ccc2c(c1)no[n+]2[O-] | 1.1 (≈ 3.24 µM)
Cc1ccc(-c2cc(C(=O)N3CCN(c4ccc(O)cc4)CC3)c3ccccc3n2)cc1 | 6.4 (≈ 15.1 µM)
COc1cccc(Oc2nc(N)ncc2[N+](=O)[O-])c1 | 32.3 (≈ 123 µM)

Structure (SMILES) | solubility kinetic [µg/mL]
Cc1[nH]c(=S)c(C#N)c(-c2ccccc2)c1C(=O)Nc1ccccc1 | > 51.8
CCCn1c2ccccc2c2cnn(CC(=O)NCCN(C)C)c(=O)c21 | > 53.3
Cc1[nH]c2ccccc2c1C(=O)C(=O)NCCc1c[nH]c2ccccc12 | 2.6 (≈ 7.53 µM)
CN(Cc1ccccn1)Cc1nc(-c2ccc(Cl)cc2)no1 | 35.5 (≈ 113 µM)
CC(Oc1ccccc1)C(=O)N1CCN=C1SCc1cccc(F)c1 (configuration not stated) | 11.1 (≈ 31 µM)
CCOC(=O)C(=CNc1ccc2c(c1)c1ccccc1n2CC)C(=O)OCC | < 0.4
COc1ccc(CCC(=O)NCc2ccccc2OC)cc1 | > 44.9
CC1=NN(C(=O)CCc2ccccc2)C(O)(c2ccncc2)C1 (configuration not stated) | > 46.4
Cc1cccc(C(C)C)c1NC(=O)CSc1cccc[n+]1[O-] | > 47.5
COc1ccccc1NC(=O)COC(=O)C1CC2CCCC(C1)C2=O (configuration not stated) | > 51.8
CN(Cc1ccccc1N1CCCC1)C(=O)c1cc2ccccc2o1 | 11.1 (≈ 33.2 µM)
Cc1ccc2[nH]c(=O)c3cc(C(=O)NCCC(C)C)sc3c2c1 | < 0.4
O=C(CSc1nc2ccccc2c(=O)n1Cc1ccc(F)cc1)NCC1CCCO1 (configuration not stated) | 4.1 (≈ 9.59 µM)
CCCc1ccc2oc(C(=O)N(C)Cc3cnccn3)c(C)c2c1 | 26.8 (≈ 82.9 µM)
CCn1ccc(C(=O)N2CCN(c3ncccn3)CC2)n1 | > 43
O=C(COC(=O)C12CC3CC(CC(Cl)(C3)C1)C2)Nc1ccccc1 | 5.9 (≈ 17 µM)
O=C(NC(=S)Nc1cccc([N+](=O)[O-])c1)c1ccccc1 | 1.2 (≈ 3.98 µM)
C/C(=N/NC(=O)CNC(=O)c1ccco1)c1ccco1 | > 41.3
O=C(Nc1nccs1)c1c(O)c2c(n(Cc3ccco3)c1=O)CCCC2 | < 0.3
CC1CCN(C(C(=O)O)c2ccccc2)CC1.Cl (configuration not stated) | > 40.5
C=CCOC(=O)C1=C(C)NC(=O)NC1c1ccc(O)cc1 (configuration not stated) | > 43.2
O=C(CCC(=O)c1ccc(-c2ccccc2)cc1)Nc1cccnc1 | 0.7 (≈ 2.12 µM)
Cc1ccc(NS(=O)(=O)c2cccc(C(=O)NC3CC3)c2)c(C)c1 | 5.8 (≈ 16.8 µM)
O=C(CCNC(=O)c1ccccc1)Nc1nc2ccccc2s1 | 4.9 (≈ 15.1 µM)

Structure (SMILES) | solubility kinetic [µg/mL]
Cc1ccc(S(=O)(=O)NCCC(=O)NC2CC2)cc1 | > 42.4
O=C(O)CCCNc1ccc(S(=O)(=O)N2CCCCC2)cc1 | > 49
O=C(O)c1ccc2c(c1)C(=O)N(CCc1ccccc1)C2=O | > 44.3
O=C(O)c1ccc2c(c1)CCCN2 | > 26.6
NC(=O)Cn1cc(C(=O)C(=O)N2CCOCC2)c2ccccc21 | > 47.3
Cc1cccc(Oc2nc(-c3ccncc3)nc3ccccc23)c1 | < 0.2
CCOc1cc(N2CCOCC2)c(OCC)cc1NC(=O)c1cccc(S(=O)(=O)N2CCOCC2)c1 | > 77.9
Cn1c(C(=O)N2CCN(c3ccccc3)CC2)cc2cc(Cl)ccc21 | 4.4 (≈ 12.4 µM)
COc1ccc(OC)c(NC(=O)COC(=O)CCNc2ccccc2OC)c1 | 40.8 (≈ 105 µM)
CC(=O)c1ccc(N2CCN(C(C)C(=O)Nc3ccc4c(c3)OCCO4)CC2)cc1 (configuration not stated) | 5.1 (≈ 12.5 µM)
Cc1ccc(C(C)NC(=O)c2cc3ccccc3oc2=O)cc1C (configuration not stated) | 0.8 (≈ 2.49 µM)
Cc1ccnc(NC(=O)c2cc3cc(F)ccc3s2)c1 | 5.2 (≈ 18.2 µM)
O=C1CC(NCc2ccc(F)cc2)C(=O)N1c1ccccc1 (configuration not stated) | 43.6 (≈ 146 µM)
CC(C)(C)C(=O)NC(=S)Nc1ccc(C(F)(F)F)cc1 | 1.1 (≈ 3.61 µM)
O=C(c1ccc2c(c1)OCCCO2)N1CCCCC1 | 28.6 (≈ 109 µM)
CC(C)NC(=O)CCCc1c[nH]c2ccccc12 | > 36.7
CC(OC(=O)Cn1cc(C(F)(F)F)ccc1=O)C(=O)N(C)c1ccccc1 (configuration not stated) | 57.2 (≈ 150 µM)
Cc1ccc(NC(=O)c2cc3ccccc3o2)cc1Cl | < 0.6
CCOC(=O)N1CCC(NC(=O)CCCC(=O)O)CC1 | > 42.9
O=C(CNC(=O)c1ccc2c(c1)OCO2)NCCOc1ccc(Cl)cc1 | 13.7 (≈ 36.4 µM)
NC(=O)c1c(/N=C/c2cccnc2)sc2c1CCCC2 | 22 (≈ 77.1 µM)
COc1cccc(OC)c1C(=O)Nc1cccnc1 | > 38.7
Cc1ccc(CNC(=O)c2cccnc2Sc2cccc(Cl)c2)cc1 | 0.5 (≈ 1.36 µM)
C[N+](C)(C)CCOP(=O)([O-])OP(=O)([O-])OC[C@H]1O[C@@H](n2ccc(N)nc2=O)[C@H](O)[C@@H]1O.[Na+] | 3.7

Structure (SMILES) | solubility kinetic [µg/mL]
O=c1c2oc3ccccc3c2ncn1Cc1cccc(Cl)c1 | < 0.3
Cc1ccc(SCc2cn3ccccc3n2)cc1 | 37 (≈ 145 µM)
O=C(CN1CCN(c2ccc([N+](=O)[O-])cc2)CC1)c1ccccc1 | 22.5 (≈ 69.2 µM)
O=C(Nc1ccc(Nc2ccccc2)cc1)c1ccc(Cl)cc1[N+](=O)[O-] | < 0.3
CC(=O)N(Cc1ccccc1)c1nc(-c2ccccc2)cs1 | < 0.3
CCC(C)CN1CCC(CO)(Cc2ccccc2Cl)CC1 (configuration not stated) | > 46.5
CN(Cc1nc2ccccc2c(=O)[nH]1)C(=O)c1cccc(NC(=O)c2cccs2)c1 | > 62.8
CN(C(=S)NC(=O)c1ccc(Cl)cc1)C1CCCCC1 | 6.4 (≈ 20.6 µM)
O=[N+]([O-])CC(c1ccccc1)P(=O)(c1ccccc1)c1ccccc1 (configuration not stated) | 9.1 (≈ 25.9 µM)
COc1cc(SC)ccc1C(=O)NCCc1c[nH]c2ccccc12 | 6.1 (≈ 17.9 µM)
Cc1nc(-c2noc(-c3cccc(Cl)c3)n2)c(C(F)(F)F)o1 | < 0.2
O=C(Cc1ccc(Cl)cc1)N1CCN(c2ccc(F)cc2)CC1 | 19 (≈ 57.1 µM)
CC1CC1C(=O)Nc1nc(-c2ccc(Cl)s2)cs1 (configuration not stated) | 0.6 (≈ 2.01 µM)
CCN1CCN(C(=O)/C=C/c2ccc(C(C)C)cc2)CC1 | > 43
Cc1ccc(-c2nc3ccccc3nc2Cl)cc1 | < 0.3
CN(C)/C=C1\N=C(c2cccnc2Oc2ccc(Cl)cc2)OC1=O | 1.6 (≈ 4.65 µM)
CC1=CCC(C(=O)O)C(C(=O)NC2CCCCC2)C1 (configuration not stated) | > 39.8
O=C1c2ccccc2C(=O)N1c1cccc2ccccc12 | 13.7 (≈ 50.1 µM)
CC1(C)CC2(C)OCCN2C(=S)N1 (configuration not stated) | > 30
O=C1NC(c2ccc(Br)cc2)Oc2ccccc21 (configuration not stated) | 2.1 (≈ 6.9 µM)
CC(C)(C)N=Cc1c(O)ccc2oc3c(c12)CCCC3 | 6.5 (≈ 24 µM)
